Results taken from patent US20250145665A1, “MACROCYCLIC PEPTIDES USEFUL AS MODULATORS OF TNF ALPHA” (Bristol-Myers Squibb Company, priority 2023, published 2025).
Starred links: 1 amine or outer side, 2 acyl side, 3 side chain; linkers in the order of their positions; H or OH if unused. Positions of bridges follow the written chain, without caps; N, C: chain ends. Non-standard residues stand in square brackets, D forms with d. Residues, ends and D or L forms follow the SMILES beside them. *: point of attachment. Bip(4'-NHCO-C6H4-3-CH2COOH) = N[C@@H](Cc1ccc(-c2ccc(NC(=O)c3cccc(CC(=O)O)c3)cc2)cc1)C(=O)O; X5 = Cn1nc(C(=O)Nc2ccc(-c3ccc(C[C@H](N[*:1])C(=O)[*:2])cc3)cc2)c2ccccc21; Bip(4'-NH) = O=C([C@H](Cc1ccc(-c2ccc(N[*:3])cc2)cc1)N[*:1])[*:2]; dArg(ω-(3-HO-benzyl)) = N=C(NCCC[C@@H](N)C(=O)O)NCc1cccc(O)c1; Bip(4'-COOH) = N[C@@H](Cc1ccc(-c2ccc(C(=O)O)cc2)cc1)C(=O)O; Bip(4'-NHAc) = CC(=O)Nc1ccc(-c2ccc(C[C@H](N)C(=O)O)cc2)cc1; X76 = O=C(O)CCC(=O)N[C@@H](Cc1cn(CC(=O)O)c2ccccc12)C(=O)*; X19 = N=C(NCCC[C@@H](N[*:1])C(=O)[*:2])NCc1ccc2ccccc2c1; X4 = N=C(NCCCc1cccc(N)c1)NCCC[C@@H](N[*:1])C(=O)[*:2]; Pro(trans-4-Ph) = O=C(O)[C@@H]1C[C@@H](c2ccccc2)CN1; Ala(imidazol-2-yl) = N[C@@H](Cc1ncc[nH]1)C(=O)O; Ala(morpholin-4-yl) = N[C@@H](CN1CCOCC1)C(=O)O; Benzoyl(3-OCH2COOH) = O=C(O)COc1cccc(C(=O)*)c1; Benzoyl(4-OCH2COOH) = O=C(O)COc1ccc(C(=O)*)cc1; Phe(3-CONH2) = NC(=O)c1cccc(C[C@H](N)C(=O)O)c1; Benzoyl(3-Ph) = O=C(c1cccc(-c2ccccc2)c1)*; Bip = N[C@@H](Cc1ccc(-c2ccccc2)cc1)C(=O)O; Val(3-OH) = CC(C)(O)[C@H](N)C(=O)O; X16 = Cc1noc(-c2ccc(C(=O)*)cc2)n1; 2Pal = N[C@@H](Cc1ccccn1)C(=O)O; Tic = O=C(O)[C@@H]1Cc2ccccc2CN1; Cha = N[C@@H](CC1CCCCC1)C(=O)O; Tle = CC(C)(C)[C@H](N)C(=O)O; Hpra = C#CCC[C@H](N)C(=O)O; Sar = CNCC(=O)O

Each molecule was assayed against TNFα (Homo sapiens, UniProt P01375) (assay: TNF-Induced HEK-Blue Assay). Settings: HEK-Blue-CD40L cells, NF-kB-driven secreted alkaline phosphatase reporter; TNFα 0.5 ng/ml; 18 h; read-out: TNF induced HEK-Blue assay IC50 value.
Format: cell-based

Sequence of TNFα (P01375 77-233 limits assumed): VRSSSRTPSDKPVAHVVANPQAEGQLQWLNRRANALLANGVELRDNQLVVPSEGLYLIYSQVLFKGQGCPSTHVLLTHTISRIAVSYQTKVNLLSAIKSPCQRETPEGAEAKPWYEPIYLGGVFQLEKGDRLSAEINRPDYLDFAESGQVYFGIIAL

Row | IC50 [nM] | SMILES
1 | < 50 | CC(C)C[C@@H]1NC(=O)[C@H](CCCNC(=N)N)NC(=O)[C@H](C(C)C)NC(=O)[C@@H]2CCCN2C(=O)[C@H](C(C)C)NC(=O)[C@@H](CCCNC(=N)NCc2cccc(O)c2)NC(=O)[C@H](CC(=O)O)NC(=O)[C@@H]2CCCN2C(=O)CN(C)C(=O)[C@H](Cc2ccc(-c3ccc(NC(=O)c4cccc(CC(=O)O)c4)cc3)cc2)NC(=O)[C@H](Cc2ccc(-c3ccccc3)cc2)NC(=O)[C@H](CN2CCOCC2)NC(=O)CSC[C@@H](C(=O)NCC(N)=O)NC1=O [Example 566] ({CH2CO}-[Ala(morpholin-4-yl)][Bip][Bip(4'-NHCO-C6H4-3-CH2COOH)][Sar]PD[dArg(ω-(3-HO-benzyl))]VPVRLCG-NH2; thioether N-13)
2 | < 50 | CC[C@H](C)[C@@H]1NC(=O)CSC[C@@H](C(=O)NCC(N)=O)NC(=O)[C@H](CC(C)C)NC(=O)[C@H](Cc2ccc(O)cc2)NC(=O)[C@H](C(C)C)NC(=O)[C@@H]2CCCN2C(=O)[C@H](C(C)C)NC(=O)[C@@H](CCCNC(=N)N)NC(=O)[C@H](CC(=O)O)NC(=O)[C@H](Cc2ccc(O)cc2)NC(=O)CN(C)C(=O)[C@H](Cc2ccc(-c3ccccc3)cc2)NC(=O)[C@H](Cc2ccc(-c3ccc(C(=O)O)cc3)cc2)NC1=O [Example 188] ({CH2CO}-I[Bip(4'-COOH)][Bip][Sar]YD[dR]VPVYLCG-NH2; thioether N-13)
3 | 200 to 2000 | CC(C)C[C@@H]1NC(=O)[C@H](Cc2ccc(O)cc2)NC(=O)[C@H](C(C)C)NC(=O)[C@@H]2CCCN2C(=O)[C@H](C(C)C)NC(=O)[C@@H](CCCNC(=N)N)NC(=O)[C@H](CC(=O)O)NC(=O)[C@@H]2C[C@@H](c3ccccc3)CN2C(=O)CN(C)C(=O)[C@H](Cc2ccc(-c3ccccc3)cc2)NC(=O)[C@H](Cc2ccc(-c3ccccc3)cc2)NC(=O)[C@H](CN2CCOCC2)NC(=O)CSC[C@@H](C(=O)NCC(N)=O)NC1=O [Example 99] ({CH2CO}-[Ala(morpholin-4-yl)][Bip][Bip][Sar][Pro(trans-4-Ph)]D[dR]VPVYLCG-NH2; thioether N-13)
4 | 50 to 200 | CC(C)C[C@@H]1NC(=O)[C@H](CCCNC(=N)N)NC(=O)[C@H](C(C)C)NC(=O)[C@@H]2CCCN2C(=O)[C@H](C(C)C)NC(=O)[C@H](CCCNC(=N)N)NC(=O)[C@H](CC(=O)O)NC(=O)[C@@H]2CCCN2C(=O)CN(C)C(=O)[C@H](Cc2ccc(-c3ccccc3)cc2)NC(=O)[C@H](Cc2ccc(-c3ccccc3)cc2)NC(=O)[C@H](C(C)(C)O)NC(=O)CSC[C@@H](C(=O)NCC(N)=O)NC1=O [Example 27] ({CH2CO}-[Val(3-OH)][Bip][Bip][Sar]PDRVPVRLCG-NH2; thioether N-13)
5 | < 50 | CC(C)C[C@@H]1NC(=O)[C@H](Cc2cnc[nH]2)NC(=O)[C@H](C(C)C)NC(=O)[C@@H]2CCCN2C(=O)[C@H](C(C)C)NC(=O)[C@@H](CCCNC(=N)N)NC(=O)[C@H](CC(=O)O)NC(=O)[C@H](Cc2ccccn2)NC(=O)CN(C)C(=O)[C@H](Cc2ccc(-c3ccc(NC(=O)c4ccc(OCC(=O)O)cc4)cc3)cc2)NC(=O)[C@H](Cc2ccc(-c3ccccc3)cc2)NC(=O)[C@H](CN2CCOCC2)NC(=O)CSC[C@@H](C(=O)NCC(N)=O)NC1=O [Example 494] ({CH2CO}-[Ala(morpholin-4-yl)][Bip][Bip(4'-NH)](Benzoyl(4-OCH2COOH))[Sar][2Pal]D[dR]VPVHLCG-NH2; thioether N-13)
6 | 200 to 2000 | CC[C@H](C)[C@@H]1NC(=O)[C@@H](CCCNC(=N)N)NC(=O)[C@H](CC(=O)O)NC(=O)[C@H](Cc2cnc[nH]2)NC(=O)CN(C)C(=O)[C@H](Cc2ccc(-c3ccc(NC(=O)[C@H](Cc4cn(CC(=O)O)c5ccccc45)NC(=O)CCC(=O)O)cc3)cc2)NC(=O)[C@H](Cc2ccc(-c3ccccc3)cc2)NC(=O)[C@H](CC2CCCCC2)NC(=O)CSC[C@@H](C(=O)NCC(N)=O)NC(=O)[C@H](CC(C)C)NC(=O)[C@H](Cc2ncc[nH]2)NC(=O)[C@H](C(C)C)NC(=O)[C@@H]2CCCN2C1=O [Example 413] ({CH2CO}-[Cha][Bip][Bip(4'-NH)](X76)[Sar]HD[dR]IPV[Ala(imidazol-2-yl)]LCG-NH2; thioether N-13)
7 | 50 to 200 | CC[C@H](C)[C@@H]1NC(=O)[C@@H](CCCNC(=N)N)NC(=O)[C@H](CC(=O)O)NC(=O)[C@H](Cc2cnc[nH]2)NC(=O)CN(C)C(=O)[C@H](Cc2ccc(-c3ccc(NC(=O)c4ccc(-c5nc(C)no5)cc4)cc3)cc2)NC(=O)[C@H](Cc2ccc(-c3ccc(C(=O)O)cc3)cc2)NC(=O)[C@H](CC2CCCCC2)NC(=O)CSC[C@@H](C(=O)NCC(N)=O)NC(=O)[C@H](CC(C)C)NC(=O)[C@H](Cc2ncc[nH]2)NC(=O)[C@H](C(C)C)NC(=O)[C@@H]2Cc3ccccc3CN2C1=O [Example 412] ({CH2CO}-[Cha][Bip(4'-COOH)][Bip(4'-NH)](X16)[Sar]HD[dR]I[Tic]V[Ala(imidazol-2-yl)]LCG-NH2; thioether N-13)
8 | 200 to 2000 | C#CCC[C@@H]1NC(=O)[C@H](CCCNC(=N)N)NC(=O)[C@H](CC(=O)O)NC(=O)[C@@H]2CCCN2C(=O)CN(C)C(=O)[C@H](Cc2ccc(-c3ccccc3)cc2)NC(=O)[C@H](Cc2ccc(-c3ccccc3)cc2)NC(=O)[C@H](Cc2ccccc2)NC(=O)CSC[C@@H](C(=O)NCC(N)=O)NC(=O)[C@H](CC(C)C)NC(=O)[C@H](CCCNC(=N)N)NC(=O)[C@H](C(C)C)NC(=O)[C@@H]2CCCN2C1=O [Example 33] ({CH2CO}-F[Bip][Bip][Sar]PDR[Hpra]PVRLCG-NH2; thioether N-13)
9 | 50 to 200 | CC(C)C[C@@H]1NC(=O)[C@H](CCCNC(=N)N)NC(=O)[C@H](C(C)C)NC(=O)[C@@H]2CCCN2C(=O)[C@H](C(C)C)NC(=O)[C@H](CCCNC(=N)N)NC(=O)[C@H](CC(=O)O)NC(=O)[C@@H]2CCCN2C(=O)CN(C)C(=O)[C@H](Cc2ccc(-c3ccccc3)cc2)NC(=O)[C@H](Cc2ccc(-c3ccc(C(=O)O)cc3)cc2)NC(=O)[C@H](CN2CCOCC2)NC(=O)CSC[C@@H](C(=O)NCC(N)=O)NC1=O [Example 120] ({CH2CO}-[Ala(morpholin-4-yl)][Bip(4'-COOH)][Bip][Sar]PDRVPVRLCG-NH2; thioether N-13)
10 | 200 to 2000 | CC[C@H](C)[C@@H]1NC(=O)[C@@H](CCCNC(=N)N)NC(=O)[C@H](CC(=O)O)NC(=O)[C@H](Cc2cnc[nH]2)NC(=O)CN(C)C(=O)[C@H](Cc2ccc(-c3ccc(NC(=O)c4cccc(-c5ccccc5)c4)cc3)cc2)NC(=O)[C@H](Cc2ccc(-c3ccccc3)cc2)NC(=O)[C@H](CC2CCCCC2)NC(=O)CSC[C@@H](C(=O)NCC(N)=O)NC(=O)[C@H](CC(C)C)NC(=O)[C@H](Cc2cnc[nH]2)NC(=O)[C@H](C(C)C)NC(=O)[C@@H]2CCCN2C1=O [Example 349] ({CH2CO}-[Cha][Bip][Bip(4'-NH)](Benzoyl(3-Ph))[Sar]HD[dR]IPVHLCG-NH2; thioether N-13)
11 | < 50 | CC(C)C[C@@H]1NC(=O)[C@H](Cc2cccc(C(N)=O)c2)NC(=O)[C@H](C(C)C)NC(=O)[C@@H]2CCCN2C(=O)[C@H](C(C)C)NC(=O)[C@@H](CCCNC(=N)N)NC(=O)[C@H](CC(=O)O)NC(=O)[C@H](Cc2cnc[nH]2)NC(=O)CN(C)C(=O)[C@H](Cc2ccc(-c3ccc(NC(=O)c4cccc(OCC(=O)O)c4)cc3)cc2)NC(=O)[C@H](Cc2ccc(-c3ccc(C(=O)O)cc3)cc2)NC(=O)[C@H](C(C)(C)C)NC(=O)CSC[C@@H](C(=O)NCC(N)=O)NC1=O [Example 590] ({CH2CO}-[Tle][Bip(4'-COOH)][Bip(4'-NH)](Benzoyl(3-OCH2COOH))[Sar]HD[dR]VPV[Phe(3-CONH2)]LCG-NH2; thioether N-13)
12 | 50 to 200 | CC(C)C[C@@H]1NC(=O)[C@H](Cc2ccc(O)cc2)NC(=O)[C@H](C(C)C)NC(=O)[C@@H]2CCCN2C(=O)[C@H](CC(N)=O)NC(=O)[C@H](CCCNC(=N)N)NC(=O)[C@H](CC(=O)O)NC(=O)[C@H](Cc2ccc(O)cc2)NC(=O)CN(C)C(=O)[C@H](Cc2ccc(-c3ccccc3)cc2)NC(=O)[C@H](Cc2ccc(-c3ccccc3)cc2)NC(=O)[C@H](CN2CCOCC2)NC(=O)CSC[C@@H](C(=O)NCC(N)=O)NC1=O [Example 83] ({CH2CO}-[Ala(morpholin-4-yl)][Bip][Bip][Sar]YDRNPVYLCG-NH2; thioether N-13)
13 | < 50 | CC(=O)Nc1ccc(-c2ccc(C[C@@H]3NC(=O)[C@H](Cc4ccc(-c5ccc(C(=O)O)cc5)cc4)NC(=O)[C@H](CC4CCCCC4)NC(=O)CSC[C@@H](C(=O)NCC(N)=O)NC(=O)[C@H](CC(C)C)NC(=O)[C@H](Cc4cnc[nH]4)NC(=O)[C@H](C(C)C)NC(=O)[C@@H]4CCCN4C(=O)[C@H](C(C)C)NC(=O)[C@@H](CCCNC(=N)N)NC(=O)[C@H](CC(=O)O)NC(=O)[C@H](Cc4cnc[nH]4)NC(=O)CN(C)C3=O)cc2)cc1 [Example 234] ({CH2CO}-[Cha][Bip(4'-COOH)][Bip(4'-NHAc)][Sar]HD[dR]VPVHLCG-NH2; thioether N-13)

Row | SMILES | IC50 [nM]
14 | CC(C)C[C@@H]1NC(=O)[C@H](CCCNC(=N)N)NC(=O)[C@H](C(C)C)NC(=O)[C@@H]2CCCN2C(=O)[C@H](C(C)C)NC(=O)[C@@H](CCCNC(=N)NCc2ccc3ccccc3c2)NC(=O)[C@H](CC(=O)O)NC(=O)[C@@H]2CCCN2C(=O)CN(C)C(=O)[C@H](Cc2ccc(-c3ccc(NC(=O)c4nn(C)c5ccccc45)cc3)cc2)NC(=O)[C@H](Cc2ccc(-c3ccccc3)cc2)NC(=O)[C@H](CN2CCOCC2)NC(=O)CSC[C@@H](C(=O)NCC(N)=O)NC1=O [Example 472] ({CH2CO}-[Ala(morpholin-4-yl)][Bip][X5][Sar]PD[X19]VPVRLCG-NH2; thioether N-13) | 50 to 200
15 | CC(C)C[C@@H]1NC(=O)[C@H](CCCNC(=N)N)NC(=O)[C@H](C(C)C)NC(=O)[C@@H]2CCCN2C(=O)[C@H](C(C)C)NC(=O)[C@@H](CCCNC(=N)NCCCc2cccc(N)c2)NC(=O)[C@H](CC(=O)O)NC(=O)[C@@H]2CCCN2C(=O)CN(C)C(=O)[C@H](Cc2ccc(-c3ccc(NC(=O)c4nn(C)c5ccccc45)cc3)cc2)NC(=O)[C@H](Cc2ccc(-c3ccccc3)cc2)NC(=O)[C@H](CN2CCOCC2)NC(=O)CSC[C@@H](C(=O)NCC(N)=O)NC1=O [Example 394] ({CH2CO}-[Ala(morpholin-4-yl)][Bip][X5][Sar]PD[X4]VPVRLCG-NH2; thioether N-13) | 50 to 200
